One experiment relates to S6C-E4 tumour cells. The experiment can be described thus: Tumour outgrowth inhibition in vivo after EBNA-4 plasmid immunisation. Also noted: species or system ACA mice. As to conditions: i.m. 40 μg E4 x3, tucaresol 200 μg s.c. days 1-4; challenge with S6C-E4 s.c.; FIG. 7. The method, then: Groups of ACA mice were immunised three times with p3, E4 or E4,T, and were subsequently challenged with […] S6C tumour cells. Mice were sacrificed when tumour diameter reached 20 mm.
Epstein Barr virus has been implicated in some cancers. We analysed the effect of tucaresol on tumour outgrowth inhibition in vivo as a result of pDNA vaccination with a plasmid expressing EBNA-4 (FIG. 7). Mice were immunised by intramuscular injection with 40 μg of either control mock plasmid pCDNA3 (P3), plasmid expressing EBNA-4 (E4) or plasmid expressing EBNA-4 followed 1, 2, 3 and 4 days later with administration of 200 μg of tucaresol s.c.—i.e. 800 μg total tucaresol per mouse (E4T). This immunisation schedule was repeated 1 month and 2 months after the initial immunisation. Two weeks after the last immunisation mice were challenged with […] S6C-E4 tumour cells s.c. Mice were sacrificed when the tumour reached a 20 mm diameter.

In experiment [1] the test system is splenocytes re-stimulated with NP peptide. The format is in vivo, C57BL/6 mice. To be noted: pVAC1.PR gene gun.
Experiment [2] relates to mycobacterial hsp65 (M.hsp65). The format is in vivo, mice.
In experiment [3] the test system is Jk-A2/kb target cells pulsed with M.hsp65 peptide. It counts as in vivo, HLA A2 transgenic mice.
Experiment [4] deals with EL4 cells pulsed with H-2 Db-restricted NP peptide. The experiment can be described thus: Lytic CTL response after gene gun NP DNA immunisation (europium release). It counts as in vivo, C57Bl/6 mice. To be noted: gene gun NP plasmid 10 ng; tucaresol s.c. 1 mg or oral 15 mg/kg x5 days; FIG. 9. The method, then:
C57B1/6 mice were immunised with plasmid DNA encoding the influenza virus nucleoprotein with or without tucaresol given subcutaneously (FIG. 9a) or orally (FIG. 9b). Splenocytes were restimulated in-vitro with A/PR8/34 virus. Standard europium release techniques were used to determine specific lysis of MHC matched target cells pulsed with H-2 D^b-restricted NP peptide.
C57BI/6 mice were immunised with plasmid DNA (10 ng) encoding the influenza virus nucleoprotein (NP) with and without tucaresol given sub-cutaneously (sc). Mice were killed 14 days post-immunisation and restimulated in-vitro (5 days) with irradiated splenocytes pulsed with virus (A/PR8/34). Standard europium release techniques were used to determine specific lysis of MHC-matched target cells (EL4 cells) pulsed with H-2 D^b-restricted NP peptide. Non-specific lysis was less than 15% for all controls. Tucaresol was given subcutaneously (1 mg) at the site of intrepidermal gene-gun immunisation.
C57B1/6 mice were immunised with plasmid DNA (10 ng) encoding the influenza virus nucleoprotein (NP) with and without tucaresol given orally. Mice were killed 14 days post-immunisation and restimulated in-vitro (5 days) with irradiated splenocytes pulsed with virus (A/PR8/34). Standard europium release techniques were used to determine specific lysis of EL4 cells pulsed with H-2D^b-restricted NP peptide. […]

In a further experiment the test system is CD4 Th-cells. To be noted: previously reported (22); cited from earlier work.
The test system of experiment [5] is lymph node T cells (response to ovalbumin peptide). The experiment is described as follows: T-cell priming after gene gun DNA immunisation (pVAC1.Ova) with conventional adjuvants. The format is in vivo, mice. As to conditions: gene gun pVAC1.Ova with or without adjuvants given s.c.; 3 days later. The text has this: Proliferation of lymph node T cells in response to pDNA or DNA encoding ovalbumin (PVAC1.Ova) in isolation and in combination with adjuvants LPS, CFA, GM-CSF and Heat-Killed Listeria monocytogenes (HKLM).
Lymphoid cells from TCR-transgenic mice, expressing a receptor specific for an ovalbumin antigen were transferred into normal syngeneic mice. These mice were then immunised subcutaneously (by means of gene gun) with plasmid DNA (pVAC1) or with plasmid DNA construct encoding ovalbumin (pVAC1.Ova) with or without adjuvants given subcutaneously. Three days later, regional lymph node cells were removed and their proliferative response to ovalbumin peptide was measured by means of incorporation of tritiated thymidine into DNA. This provides a measure of the degree of specific T-cell priming that occurred in vivo in response to immunisation. […] However, in contrast to the conventional peptide immunisation, none of the adjuvants were able to enhance this response to DNA immunisation.

Entries after “also recorded” stand apart in the source; their conditions may differ. Like-named read-outs stand apart in the source and are kept apart here.

On to `O=Cc1c(O)cccc1OCc1ccc(C(=O)O)cc1` [tucaresol, 4-(2-formyl-3-hydroxyphenoxymethyl)benzoic acid], for which the tumour outgrowth inhibition result with S6C-E4 tumour cells is “significantly enhances; also recorded: markedly enhanced”. Further, the “CTL cytokine response (IFNγ positive cells per 10e6 splenocytes)” value is recorded as “doubling of the response” in experiment [1] (tucaresol oral gavage 15 mg/kg daily for 5 days) and “small but significant increase” in experiment [1] (tucaresol s.c. 2×1 mg at site of DNA vaccination). The “IgG2a anti-M.hsp65 antibody response (Th1 associated)” value in experiment [2] (FIG. 3b) is “significantly (P=0.003) increased; also recorded: strongly enhanced”. For the same molecule, in experiment [2] (compared to p3 immunised mice, FIG. 3c), the “IgG1 anti-M.hsp65 antibody response (Th2 associated)” value is listed as “did also induce”. Further, in experiment [2] (control plasmid p3 and tucaresol (p3, T)), the “specific antibody response with control plasmid” value is listed as “no increase in the specific antibody response”. The “anti-M.hsp65 antibody (IgG) titres” value in experiment [2] (i.m. 20 μg p3M.65, tucaresol 1 mg s.c. simultaneously or cytokine plasmids equimolar, FIG. 3a) was “markedly increased; also recorded: comparable to the effect of the GM-CSF plasmid”. Besides, the “CTL activity against target cells pulsed with the cognate M.hsp65 epitope” value in experiment [3] (immunised twice, splenocytes stimulated with peptide, FIG. 6) was “high CTL activity; also recorded: markedly enhanced”. For the same molecule, in experiment [3] (mouse, in vivo), the “lytic activity against Jk-A2/kb cells unpulsed or pulsed with control influenza peptide” value is “much lower”. In addition, the “lytic CTL response (specific lysis)” value in experiment [4] is reported as “Enhances”. For the same molecule, in the experiment on CD4 Th-cells, the “CD4 Th-cell response” value is “enhanced CD4 Th-cell response, selectively favouring a Th 1-type profile over Th 2”.

B1: GM-CSF: GM-CSF given as adjuvant with DNA immunisation (protein, UniProt P01587 18-141, looked up)
Granulocyte-macrophage …: APTRSPITVTRPWKHVEAIKEALNLLDDMPVTLNEEVEVVSNEFSFKKLTCVQTRLKIFEQGLRGNFTKLKGALNMTASYYQTYCPPTPETDCETQVTTYADFIDSLKTFLTDIPFECKKPGQK
B1: the “T-cell priming in response to DNA immunisation” value in experiment [5] was “failed to enhance the response”.
